Reference: ChEMBL document CHEMBL4725218, “Deep Learning Enhancing Kinome-Wide Polypharmacology Profiling: Model Construction and Experiment Validation” (J Med Chem, 2020)

Key:
[1] = target: RAF proto-oncogene serine/threonine-protein kinase (Homo sapiens) (UniProt P04049); test: Inhibition of human RAF1 assessed as remaining enzyme activity at 1 uM
[2] = target: Platelet-derived growth factor receptor beta (Homo sapiens) (UniProt P09619); test: Inhibition of human PDGFRbeta assessed as remaining enzyme activity at 1 uM
[3] = target: BDNF/NT-3 growth factors receptor (Homo sapiens) (UniProt Q16620); test: Inhibition of human TRKB assessed as remaining enzyme activity at 1 uM
[4] = target: Tyrosine-protein kinase ABL1 (Homo sapiens) (UniProt P00519); test: Inhibition of human ABL assessed as remaining enzyme activity at 1 uM
[5] = target: RAF proto-oncogene serine/threonine-protein kinase (Homo sapiens) (UniProt P04049); test: Inhibition of human C-Raf assessed as remaining enzyme activity at 1 uM
[6] = target: Homeodomain-interacting protein kinase 3 (Homo sapiens) (UniProt Q9H422); test: Inhibition of human HIPK3 assessed as remaining enzyme activity at 1 uM
[7] = target: T1, Muscle, skeletal receptor tyrosine-protein kinase (Homo sapiens) (UniProt O15146); test: Inhibition of human MuSK assessed as remaining enzyme activity at 1 uM
T1 sequence (whole entry): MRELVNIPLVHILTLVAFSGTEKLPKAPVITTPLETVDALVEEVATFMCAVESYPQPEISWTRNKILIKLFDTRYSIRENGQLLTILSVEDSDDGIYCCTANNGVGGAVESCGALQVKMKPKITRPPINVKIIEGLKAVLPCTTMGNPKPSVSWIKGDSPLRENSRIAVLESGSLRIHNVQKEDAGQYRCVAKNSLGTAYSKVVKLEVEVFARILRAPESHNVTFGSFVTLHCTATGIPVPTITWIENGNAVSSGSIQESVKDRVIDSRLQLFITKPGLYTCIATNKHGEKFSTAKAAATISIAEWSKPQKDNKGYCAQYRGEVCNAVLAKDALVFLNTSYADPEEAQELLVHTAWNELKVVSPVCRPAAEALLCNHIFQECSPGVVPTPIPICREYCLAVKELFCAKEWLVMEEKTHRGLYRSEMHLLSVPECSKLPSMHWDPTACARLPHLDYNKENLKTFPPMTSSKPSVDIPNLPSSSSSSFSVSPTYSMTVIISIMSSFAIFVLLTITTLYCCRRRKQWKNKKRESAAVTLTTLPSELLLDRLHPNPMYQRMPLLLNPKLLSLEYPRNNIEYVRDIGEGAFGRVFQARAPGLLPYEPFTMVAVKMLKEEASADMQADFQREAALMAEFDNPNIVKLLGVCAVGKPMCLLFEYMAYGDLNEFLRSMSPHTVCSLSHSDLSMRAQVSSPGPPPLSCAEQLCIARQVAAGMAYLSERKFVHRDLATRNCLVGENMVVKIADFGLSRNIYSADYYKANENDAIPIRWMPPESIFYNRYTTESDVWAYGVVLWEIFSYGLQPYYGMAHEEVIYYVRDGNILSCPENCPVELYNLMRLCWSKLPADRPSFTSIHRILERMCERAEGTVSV

[8] = target: Serine/threonine-protein kinase 10 (Homo sapiens) (UniProt O94804); test: Inhibition of human LOK assessed as remaining enzyme activity at 1 uM
[9] = target: Platelet-derived growth factor receptor alpha (Homo sapiens) (UniProt P16234); test: Inhibition of human PDGFRAlpha assessed as remaining enzyme activity at 1 uM
[10] = target: Vascular endothelial growth factor receptor 3 (Homo sapiens) (UniProt P35916); test: Inhibition of human VEGFR3 assessed as remaining enzyme activity at 0.1 uM
[11] = target: RAF proto-oncogene serine/threonine-protein kinase (Homo sapiens) (UniProt P04049); test: Inhibition of human RAF1 assessed as remaining enzyme activity at 0.1 uM
[12] = target: Mitogen-activated protein kinase 14 (Homo sapiens) (UniProt Q16539); test: Inhibition of human p38alpha assessed as remaining enzyme activity at 0.1 uM
[13] = target: T2, Ephrin type-A receptor 8 (Homo sapiens) (UniProt P29322); test: Inhibition of human EphA8 assessed as remaining enzyme activity at 0.1 uM
T2 sequence (whole entry): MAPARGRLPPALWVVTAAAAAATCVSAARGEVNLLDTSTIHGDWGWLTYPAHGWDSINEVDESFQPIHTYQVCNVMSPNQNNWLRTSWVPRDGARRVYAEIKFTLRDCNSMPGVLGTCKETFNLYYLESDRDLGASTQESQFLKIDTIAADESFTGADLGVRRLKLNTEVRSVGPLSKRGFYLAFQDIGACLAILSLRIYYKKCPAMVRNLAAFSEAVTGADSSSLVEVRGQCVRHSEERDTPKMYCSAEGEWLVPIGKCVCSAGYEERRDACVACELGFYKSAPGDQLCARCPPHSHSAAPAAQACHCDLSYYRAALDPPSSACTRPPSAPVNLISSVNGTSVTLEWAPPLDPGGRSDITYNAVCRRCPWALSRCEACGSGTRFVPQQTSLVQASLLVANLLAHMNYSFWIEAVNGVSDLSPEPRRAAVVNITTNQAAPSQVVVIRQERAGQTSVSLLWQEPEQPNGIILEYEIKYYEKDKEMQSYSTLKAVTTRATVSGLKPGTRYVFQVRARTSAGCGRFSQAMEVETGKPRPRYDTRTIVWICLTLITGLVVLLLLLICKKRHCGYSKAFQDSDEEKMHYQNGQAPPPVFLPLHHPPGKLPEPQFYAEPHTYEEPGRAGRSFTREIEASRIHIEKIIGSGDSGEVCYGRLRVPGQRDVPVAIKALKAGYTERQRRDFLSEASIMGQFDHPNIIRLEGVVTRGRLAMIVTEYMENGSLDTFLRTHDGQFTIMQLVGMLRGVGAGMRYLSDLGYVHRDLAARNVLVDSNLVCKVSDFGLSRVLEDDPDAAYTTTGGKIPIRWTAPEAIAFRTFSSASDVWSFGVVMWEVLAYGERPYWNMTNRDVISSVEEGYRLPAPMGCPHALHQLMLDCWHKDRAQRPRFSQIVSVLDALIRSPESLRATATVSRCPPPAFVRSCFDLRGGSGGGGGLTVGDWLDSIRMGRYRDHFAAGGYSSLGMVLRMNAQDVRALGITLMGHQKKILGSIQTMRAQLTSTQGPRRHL

[14] = target: Homeodomain-interacting protein kinase 2 (Homo sapiens) (UniProt Q9H2X6); test: Inhibition of human HIPK2 assessed as remaining enzyme activity at 0.1 uM
[15] = target: Mitogen-activated protein kinase kinase kinase 20 (Homo sapiens) (UniProt Q9NYL2); test: Inhibition of human ZAK assessed as remaining enzyme activity at 0.01 uM
[16] = target: Mitogen-activated protein kinase kinase kinase kinase 5 (Homo sapiens) (UniProt Q9Y4K4); test: Inhibition of human MAP4K5 assessed as remaining enzyme activity at 0.01 uM
[17] = target: NT-3 growth factor receptor (Homo sapiens) (UniProt Q16288); test: Inhibition of human TRKC assessed as remaining enzyme activity at 0.01 uM
[18] = target: Serine/threonine-protein kinase B-raf (Homo sapiens) (UniProt P15056); test: Inhibition of human B-Raf assessed as remaining enzyme activity at 0.01 uM
[19] = target: Homeodomain-interacting protein kinase 3 (Homo sapiens) (UniProt Q9H422); test: Inhibition of human HIPK3 assessed as remaining enzyme activity at 0.01 uM

RAF proto-oncogene serine/threonine-protein kinase (Homo sapiens), sequence (P04049 whole entry): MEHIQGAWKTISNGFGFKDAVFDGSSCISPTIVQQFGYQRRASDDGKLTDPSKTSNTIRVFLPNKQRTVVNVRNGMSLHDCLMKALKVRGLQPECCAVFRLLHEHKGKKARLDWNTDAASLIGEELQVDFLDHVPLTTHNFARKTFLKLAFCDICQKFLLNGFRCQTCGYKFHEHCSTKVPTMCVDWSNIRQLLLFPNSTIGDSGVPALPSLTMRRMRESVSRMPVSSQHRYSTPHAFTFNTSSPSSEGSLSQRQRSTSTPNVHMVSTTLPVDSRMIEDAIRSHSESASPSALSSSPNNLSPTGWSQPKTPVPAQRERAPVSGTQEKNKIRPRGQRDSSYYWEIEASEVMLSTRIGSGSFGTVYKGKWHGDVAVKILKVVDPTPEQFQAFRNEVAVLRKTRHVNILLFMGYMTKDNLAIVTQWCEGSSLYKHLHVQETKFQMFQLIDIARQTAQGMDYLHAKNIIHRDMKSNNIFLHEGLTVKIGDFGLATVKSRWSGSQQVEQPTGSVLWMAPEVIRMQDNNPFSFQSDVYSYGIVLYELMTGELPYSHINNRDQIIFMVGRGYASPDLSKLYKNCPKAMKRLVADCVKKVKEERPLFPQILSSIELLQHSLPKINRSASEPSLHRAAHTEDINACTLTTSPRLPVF
Homeodomain-interacting protein kinase 3 (Homo sapiens), sequence (Q9H422 whole entry, looked up): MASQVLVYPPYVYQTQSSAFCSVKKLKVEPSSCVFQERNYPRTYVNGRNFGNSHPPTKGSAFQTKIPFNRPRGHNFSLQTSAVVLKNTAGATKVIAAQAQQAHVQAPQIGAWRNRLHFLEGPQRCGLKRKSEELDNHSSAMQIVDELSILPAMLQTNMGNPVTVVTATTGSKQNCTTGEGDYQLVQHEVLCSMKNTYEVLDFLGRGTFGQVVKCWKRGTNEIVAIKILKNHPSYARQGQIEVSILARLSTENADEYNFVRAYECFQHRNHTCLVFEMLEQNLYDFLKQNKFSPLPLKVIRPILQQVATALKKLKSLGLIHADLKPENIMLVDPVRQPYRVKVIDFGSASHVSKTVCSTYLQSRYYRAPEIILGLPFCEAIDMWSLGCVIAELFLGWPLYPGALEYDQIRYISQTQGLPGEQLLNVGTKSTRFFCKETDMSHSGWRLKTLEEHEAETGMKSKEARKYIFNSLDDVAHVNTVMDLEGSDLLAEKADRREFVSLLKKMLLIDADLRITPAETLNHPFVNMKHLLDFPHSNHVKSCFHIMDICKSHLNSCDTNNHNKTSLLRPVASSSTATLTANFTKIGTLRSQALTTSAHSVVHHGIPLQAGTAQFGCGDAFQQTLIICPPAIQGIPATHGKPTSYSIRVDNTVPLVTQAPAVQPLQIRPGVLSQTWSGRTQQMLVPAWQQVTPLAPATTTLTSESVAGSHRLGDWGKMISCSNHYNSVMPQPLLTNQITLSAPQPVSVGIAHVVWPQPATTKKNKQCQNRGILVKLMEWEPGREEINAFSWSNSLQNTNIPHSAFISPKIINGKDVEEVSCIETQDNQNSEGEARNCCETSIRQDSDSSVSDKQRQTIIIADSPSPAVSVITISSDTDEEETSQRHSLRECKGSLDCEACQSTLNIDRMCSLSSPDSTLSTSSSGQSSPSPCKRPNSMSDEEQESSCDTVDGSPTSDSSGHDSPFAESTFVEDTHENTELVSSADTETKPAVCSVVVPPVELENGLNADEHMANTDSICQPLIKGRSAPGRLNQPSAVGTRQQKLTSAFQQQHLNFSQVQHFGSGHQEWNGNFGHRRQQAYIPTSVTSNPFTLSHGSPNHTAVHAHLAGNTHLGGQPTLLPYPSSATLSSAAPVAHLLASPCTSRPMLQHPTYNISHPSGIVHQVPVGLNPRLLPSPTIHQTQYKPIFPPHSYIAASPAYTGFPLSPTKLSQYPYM
Mitogen-activated protein kinase kinase kinase kinase 5 (Homo sapiens), sequence (Q9Y4K4 whole entry, looked up): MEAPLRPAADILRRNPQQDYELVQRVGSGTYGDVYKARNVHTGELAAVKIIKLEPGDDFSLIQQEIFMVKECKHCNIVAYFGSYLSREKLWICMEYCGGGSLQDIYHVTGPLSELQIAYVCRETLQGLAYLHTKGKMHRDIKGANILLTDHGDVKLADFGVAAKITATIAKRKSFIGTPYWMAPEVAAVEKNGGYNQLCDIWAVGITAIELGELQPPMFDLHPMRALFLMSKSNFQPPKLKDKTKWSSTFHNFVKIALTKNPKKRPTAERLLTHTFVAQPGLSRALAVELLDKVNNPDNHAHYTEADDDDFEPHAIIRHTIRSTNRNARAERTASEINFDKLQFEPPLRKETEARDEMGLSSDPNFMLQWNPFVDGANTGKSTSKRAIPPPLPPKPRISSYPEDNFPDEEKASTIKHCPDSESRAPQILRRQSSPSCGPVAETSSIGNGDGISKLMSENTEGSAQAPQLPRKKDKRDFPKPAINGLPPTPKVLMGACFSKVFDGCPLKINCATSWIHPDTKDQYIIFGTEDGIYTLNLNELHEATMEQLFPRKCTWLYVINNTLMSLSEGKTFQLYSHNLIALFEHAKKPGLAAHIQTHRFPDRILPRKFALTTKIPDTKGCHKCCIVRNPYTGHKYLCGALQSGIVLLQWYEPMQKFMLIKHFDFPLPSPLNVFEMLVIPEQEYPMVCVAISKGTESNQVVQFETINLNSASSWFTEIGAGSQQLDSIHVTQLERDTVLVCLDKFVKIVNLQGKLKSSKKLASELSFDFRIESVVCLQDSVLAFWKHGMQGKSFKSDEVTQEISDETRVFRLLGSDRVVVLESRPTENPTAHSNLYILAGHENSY
Platelet-derived growth factor receptor alpha (Homo sapiens), sequence (P16234 whole entry): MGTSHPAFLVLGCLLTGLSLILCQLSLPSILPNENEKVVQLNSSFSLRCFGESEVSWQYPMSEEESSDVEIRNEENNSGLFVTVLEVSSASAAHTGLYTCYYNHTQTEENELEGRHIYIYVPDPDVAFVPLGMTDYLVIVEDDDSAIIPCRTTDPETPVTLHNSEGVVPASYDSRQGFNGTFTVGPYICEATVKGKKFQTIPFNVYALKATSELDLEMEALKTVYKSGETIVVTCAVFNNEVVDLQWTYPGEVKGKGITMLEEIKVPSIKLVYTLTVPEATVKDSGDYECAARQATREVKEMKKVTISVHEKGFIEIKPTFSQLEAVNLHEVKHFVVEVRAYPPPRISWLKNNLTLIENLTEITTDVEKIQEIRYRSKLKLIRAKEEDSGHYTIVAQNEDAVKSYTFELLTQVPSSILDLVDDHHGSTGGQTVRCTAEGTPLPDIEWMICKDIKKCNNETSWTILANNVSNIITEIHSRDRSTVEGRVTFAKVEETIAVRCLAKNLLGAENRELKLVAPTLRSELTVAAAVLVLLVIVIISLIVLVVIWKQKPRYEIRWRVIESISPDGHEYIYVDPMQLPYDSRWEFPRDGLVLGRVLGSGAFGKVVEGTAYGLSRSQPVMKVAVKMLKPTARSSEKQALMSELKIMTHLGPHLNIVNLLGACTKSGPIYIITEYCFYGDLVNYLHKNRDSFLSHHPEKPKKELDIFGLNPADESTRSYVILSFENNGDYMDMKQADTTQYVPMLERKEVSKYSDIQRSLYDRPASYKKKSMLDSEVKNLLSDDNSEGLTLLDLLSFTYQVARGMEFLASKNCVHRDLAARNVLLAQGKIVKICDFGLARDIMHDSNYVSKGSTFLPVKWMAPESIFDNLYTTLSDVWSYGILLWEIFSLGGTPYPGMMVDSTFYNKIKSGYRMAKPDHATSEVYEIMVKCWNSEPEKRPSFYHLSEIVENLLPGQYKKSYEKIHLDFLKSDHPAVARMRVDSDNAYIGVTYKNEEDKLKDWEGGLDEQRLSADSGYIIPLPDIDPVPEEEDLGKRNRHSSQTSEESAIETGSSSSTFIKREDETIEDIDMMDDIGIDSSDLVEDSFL
Mitogen-activated protein kinase 14 (Homo sapiens), sequence (Q16539 whole entry): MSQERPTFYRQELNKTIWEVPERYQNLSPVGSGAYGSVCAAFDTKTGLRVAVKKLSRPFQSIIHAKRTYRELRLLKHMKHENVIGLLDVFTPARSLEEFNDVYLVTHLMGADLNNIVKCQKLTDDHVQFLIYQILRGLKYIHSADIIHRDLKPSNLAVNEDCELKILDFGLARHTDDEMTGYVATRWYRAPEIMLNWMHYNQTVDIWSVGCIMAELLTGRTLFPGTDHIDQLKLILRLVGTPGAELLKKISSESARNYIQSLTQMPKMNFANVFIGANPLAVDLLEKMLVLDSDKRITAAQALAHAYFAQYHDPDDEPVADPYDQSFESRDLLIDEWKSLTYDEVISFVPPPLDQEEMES
NT-3 growth factor receptor (Homo sapiens), sequence (Q16288 32-839 limits assumed): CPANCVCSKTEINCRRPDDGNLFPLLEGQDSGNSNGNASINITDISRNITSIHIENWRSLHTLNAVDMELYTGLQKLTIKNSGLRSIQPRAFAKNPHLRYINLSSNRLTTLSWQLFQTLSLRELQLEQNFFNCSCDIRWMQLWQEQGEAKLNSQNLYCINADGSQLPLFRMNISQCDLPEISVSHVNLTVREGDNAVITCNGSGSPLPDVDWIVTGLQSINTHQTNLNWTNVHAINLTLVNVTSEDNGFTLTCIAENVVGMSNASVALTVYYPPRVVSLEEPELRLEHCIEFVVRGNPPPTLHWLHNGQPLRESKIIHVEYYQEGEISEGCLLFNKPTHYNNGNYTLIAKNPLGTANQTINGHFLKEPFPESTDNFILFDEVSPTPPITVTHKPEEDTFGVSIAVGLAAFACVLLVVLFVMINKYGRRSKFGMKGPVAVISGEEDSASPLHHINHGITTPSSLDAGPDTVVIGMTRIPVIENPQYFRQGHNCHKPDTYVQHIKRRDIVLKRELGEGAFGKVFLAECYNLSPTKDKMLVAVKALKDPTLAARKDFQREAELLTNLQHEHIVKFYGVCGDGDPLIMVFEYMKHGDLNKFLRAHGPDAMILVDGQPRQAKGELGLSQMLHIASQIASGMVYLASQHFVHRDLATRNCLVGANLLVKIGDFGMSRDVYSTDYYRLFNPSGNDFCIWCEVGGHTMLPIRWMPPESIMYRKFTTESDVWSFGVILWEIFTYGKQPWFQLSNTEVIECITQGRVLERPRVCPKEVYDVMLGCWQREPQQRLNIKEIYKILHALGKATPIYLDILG

Activity [1]: 8%
Activity [2]: 55%
Activity [3]: 1%
Activity [4]: 8%
Activity [5]: 8%
Activity [6]: 12%
Activity [7]: 21%
Activity [8]: 34%
Activity [9]: 35%
Activity [10]: 1%
Activity [11]: 57%
Activity [12]: 52%
Activity [13]: 44%
Activity [14]: 61%
Activity [15]: 27%
Activity [16]: 104%
Activity [17]: 54%
Activity [18]: 101%
Activity [19]: 103%
Compound: CNC(=O)c1cc(Oc2ccc(NC(=O)Nc3ccc(Cl)c(C(F)(F)F)c3)c(F)c2)ccn1
